Results reported in US8293909B2, “Compounds for the treatment of hepatitis C” (Bristol-Myers Squibb Company, priority 2008, dated 2012).

Columns and labels:
HCV = details: cited from earlier work
1 a replicon = test: HCV replicon luciferase reporter assay, 384 plate protocol, 1a replicon; type: cell-based; details: Hepatitis C virus; Table 1; *384 plate protocol and a 1 a replicon
Procedure: The HCV replicon luciferase assay was developed to monitor the inhibitory effects of compounds described in the disclosure on HCV viral replication. Utilization of a replicon luciferase reporter assay was first described by Krieger et al (Krieger N, Lohmann V, and Bartenschlager R, J. Virol. 75(10):4614-4624 (2001)). HUH-7 cells, constitutively expressing the HCV replicon, were grown in Dulbecco's Modified Eagle Media (DMEM) (Gibco-BRL) containing 10% Fetal calf serum (FCS) (Sigma) and 1 mg/ml G418 (Gibco-BRL). Compounds were serially diluted 3 folds in DMSO for a twenty-point titration and subsequently transferred to sterile 384-well tissue-culture treated plates (Corning cat #3571). The plates were then seeded with 50 μl of cells at a density of 3.0×10^3 cells/well in DMEM containing 4% FCS (final DMSO concentration at 0.5%). After 3 days incubation at 37° C., cells were analyzed for Renilla Luciferase activity using the EnduRen as substrate (Promega cat #E6485). The EnduRen substrate was diluted in DMEM and then added to the plates to a final concentration of 7.5 μM. The plates were incubated for 2 hrs at 37° C. and then read immediately for 30 seconds with Viewlux Imager (PerkinElmer) using a luminescence program. […] The fluorescence signal from each well was read, with an excitation wavelength at 525/10 nm and an emission wavelength of 598/10 nm, using the Viewlux Imager.

[1] = system: HCV replicon in HUH-7 cells; test: HCV replicon luciferase reporter assay, 384 well plate protocol; type: cell-based; details: Hepatitis C virus, Table 2
Procedure: The HCV replicon luciferase assay was developed to monitor the inhibitory effects of compounds described in the disclosure on HCV viral replication. Utilization of a replicon luciferase reporter assay was first described by Krieger et al (Krieger N, Lohmann V, and Bartenschlager R, J. Virol. 75(10):4614-4624 (2001)). HUH-7 cells, constitutively expressing the HCV replicon, were grown in Dulbecco's Modified Eagle Media (DMEM) (Gibco-BRL) containing 10% Fetal calf serum (FCS) (Sigma) and 1 mg/ml G418 (Gibco-BRL). Compounds were serially diluted 3 folds in DMSO for a twenty-point titration and subsequently transferred to sterile 384-well tissue-culture treated plates (Corning cat #3571). The plates were then seeded with 50 μl of cells at a density of 3.0×10^3 cells/well in DMEM containing 4% FCS (final DMSO concentration at 0.5%). After 3 days incubation at 37° C., cells were analyzed for Renilla Luciferase activity using the EnduRen as substrate (Promega cat #E6485). The EnduRen substrate was diluted in DMEM and then added to the plates to a final concentration of 7.5 μM. The plates were incubated for 2 hrs at 37° C. and then read immediately for 30 seconds with Viewlux Imager (PerkinElmer) using a luminescence program. To assess cytotoxicity of compounds, CC50 values were generated by multiplexing the EnduRen-containing plates with Cell Titer-Blue (Promega, cat #G8082). 3 μl of Cell-Titer Blue was added to each well and incubated for 8 hrs at 37° C. The fluorescence signal from each well was read, with an excitation wavelength at 525/10 nm and an emission wavelength of 598/10 nm, using the Viewlux Imager.

[2] = target: T1, HCV NS5B RdRp genotype 1b (Hepatitis C virus genotype 1b, UniProt Q9WMX2); test: HCV NS5B RdRp enzyme assay (standard / modified); type: biochemical; details: HCV NS5B genotype 1b
T1 construct: The protein was expressed with an 18 amino acid C-terminal truncation to enhance the solubility; made in house; host or cells: E. coli BL21(DE3), pET21a vector
Procedure, shortened: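 Genotype 1b NS5B with an 18-aa C-terminal truncation, expressed in E. coli, was tested by SPA incorporation of 3H-UTP (0.29 μM) on polyA/biotin-oligo-dT12. Standard assay: 28 nM enzyme, 6 nM template, 180 nM primer, 60 min at 30 °C, pH 7.5, 2% DMSO. Modified assay: 14 nM enzyme added to compound first, 0.2 nM template, 20 nM bead-precaptured primer, 4 h at 30 °C. IC50 used seven inhibitor concentrations.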

HCV replicon cells = test: HCV replicon assay (FRET or luciferase readout); type: cell-based; details: Hepatitis C virus
Procedure, shortened: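 Trypsinized replicon cells were seeded with compound titrations and incubated at 37 °C for various times. Alamar blue was added to gauge toxicity. Plates were then rinsed and either lysed with FRET peptide reagent for kinetic fluorescence reading or switched to phenol red-free DMEM for luciferase measurement.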

T1 sequence (Q9WMX2 2420-2992): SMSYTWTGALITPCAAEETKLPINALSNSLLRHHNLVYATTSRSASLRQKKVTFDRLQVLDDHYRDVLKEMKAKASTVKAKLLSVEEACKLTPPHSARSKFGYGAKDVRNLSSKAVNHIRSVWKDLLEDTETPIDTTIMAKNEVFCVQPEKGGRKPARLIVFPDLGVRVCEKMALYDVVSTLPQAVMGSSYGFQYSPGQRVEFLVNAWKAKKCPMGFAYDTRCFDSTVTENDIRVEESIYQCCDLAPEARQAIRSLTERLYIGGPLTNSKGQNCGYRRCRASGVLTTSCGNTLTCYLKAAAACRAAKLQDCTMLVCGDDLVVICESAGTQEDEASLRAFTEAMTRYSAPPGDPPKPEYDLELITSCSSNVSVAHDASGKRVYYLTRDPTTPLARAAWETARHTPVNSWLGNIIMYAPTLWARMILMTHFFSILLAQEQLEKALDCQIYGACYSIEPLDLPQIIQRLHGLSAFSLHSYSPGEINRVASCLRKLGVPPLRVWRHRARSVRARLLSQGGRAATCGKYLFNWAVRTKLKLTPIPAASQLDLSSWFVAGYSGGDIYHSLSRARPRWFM

Compound | IC50 ([2]; Table 1) [nM] | EC50 (HCV replicon cells; Table 1) [nM] | further results
CNC(=O)c1c(-c2ccc(F)cc2)oc2cc(N(CCO)S(C)(=O)=O)c(C3CC3)cc12 [HCV-796] |  |  | hepatic toxicity (HCV; extended dosing of the combination regimens with interferon and ribavirin): hepatic toxicity observed during extended dosing of the combination regimens; HCV RNA levels in patients (HCV; patients): showed an ability to reduce HCV RNA levels in patients
CNC(=O)c1c(-c2ccc(F)cc2)nc2ccc(-c3ccc(-c4ccccc4Cl)c(C(=O)NCC(C)C)c3)cn12 [drawing 163] |  |  | EC50 (1 a replicon): 250 to 1000 nM
CNC(=O)c1c(-c2ccc(F)cc2)oc2ncc(-c3cc(C(=O)NC4(c5ccccn5)CC4)ccc3Cl)cc12 [drawing 187] |  |  | EC50 [1]: 1.5 nM
CNC(=O)c1c(-c2ccc(F)cc2)nn2ccc(-c3cc(C(=O)NC4(c5ccccc5)CC4)ccc3C)c(F)c12 [drawing 185] |  |  | EC50 [1]: 0.85 nM
alpha-interferon and ribavirin |  |  | sustained efficacy (HCV; combination therapy): 40 % of patients
CNC(=O)c1c(-c2ccc(F)cc2)nc2ccc(-c3cc(C(=O)NC4(c5ccccn5)CC4)c(OC)cc3Cl)cn12 [drawing 164] |  |  | EC50 (1 a replicon): 2 to 250 nM
CNC(=O)c1c(-c2ccc(F)cc2)oc2ncc(-c3cc(C(=O)NC4(c5ccccn5)CC4)ccc3C)cc12 [drawing 186] |  |  | EC50 [1]: 2.04 nM; IC50 ([2]; Table 2): 4.65 nM
pegylated alpha-interferon |  |  | clinical efficacy compared with unmodified alpha-interferon (HCV; monotherapy): superior to unmodified alpha-interferon as monotherapy
CNC(=O)c1c(-c2ccc(F)cc2)nn2cc(N(CCO)S(C)(=O)=O)c(OC)cc12 [drawing 184] |  |  | IC50 ([2]; Table 2): 2920 nM; EC50 (HCV replicon cells; Table 2): 3990 nM
CNC(=O)c1c(-c2ccccc2)nn2cc(N3CCOC3=O)ccc12 | > 10000 | > 10000 | 
CNC(=O)c1c(-c2ccc(F)cc2)oc2ncc(-c3cccc(C(=O)NC4(c5ccccc5)CC4)c3)cc12 | 2 to 250 | 2 to 250 | 
CNC(=O)c1c(-c2ccc(F)cc2)nn2ccc(-c3cc(C(=O)NC4(c5ccccc5)CC4)ccc3C)c(F)c12 [drawing 127] | 2 to 250 | 2 to 250 | 
CNC(=O)c1c(-c2ccc(F)cc2)sc2ccc(-c3cccc(C(=O)NC(C)(C)C)c3)cc12 [drawing 85] | > 4170 | 1000 to 10000 | 
CNC(=O)c1c(-c2ccc(F)cc2)nn2ccc(NCc3ccccc3)cc12 | > 10000 | > 10000 | 
CNC(=O)c1c(-c2ccc(F)cc2)nn2ccc(NS(=O)(=O)c3cccc(OC)c3)cc12 | > 10000 | > 10000 | 
CNC(=O)c1c(-c2ccc(F)cc2)[nH]c2ccc(-c3cccc(C(=O)NC(C)(C)c4ccccc4)c3)cc12 [drawing 181] |  |  | IC50 ([2]; Table 2): 720 nM; EC50 (HCV replicon cells; Table 2): 460 nM
CNC(=O)c1c(-c2ccc(F)cc2)nn2cc(N(CCOC)S(C)(=O)=O)c(-c3cccc(C(=O)NC(C)(C)c4ccccc4)c3)cc12 | 2 to 250 | 2 to 250 | 
CNC(=O)c1c(-c2ccc(F)cc2)nn2cc(N(CCO)S(C)(=O)=O)c(-c3cc(C(=O)NCC(C)C)ccc3Cl)cc12 | 2 to 250 | 250 to 1000 | 
CNC(=O)c1c2cc(-c3cc(C(=O)NC(C)(C)c4ccccc4)ccc3C)ccc2nn1-c1ccc(F)cc1 | 2 to 250 | 2 to 250 | 
CCN(c1cn2nc(-c3ccc(F)cc3)c(C(=O)NC)c2cc1-c1ccccc1)S(C)(=O)=O | 2 to 250 | 250 to 1000 | 
CNC(=O)c1c(-c2ccc(F)cc2)nn2ccc(-c3cccc(C(=O)NC(C)(C)c4ccccc4)c3)cc12 | 2 to 250 | 2 to 250 | 
CNC(=O)c1c2cc(-c3cccc(C(=O)NC(C)(C)C)c3)ccc2nn1-c1ccc(F)cc1 | 1000 to 10000 | 1000 to 10000 | 

Compound | IC50 ([2]; Table 1) [nM] | EC50 (HCV replicon cells; Table 1) [nM] | further results
CNC(=O)c1c(-c2ccc(F)cc2)oc2ncc(-c3cc(C(=O)NC4(c5ccccn5)CC4)ccc3Cl)cc12 [drawing 113] | 2 to 250 | 2 to 250 | 
CNC(=O)c1c(-c2ccc(F)cc2)nn2cccc(N)c12 | > 10000 | > 10000 | 
CCN(c1cn2nc(-c3ccc(F)cc3)c(C(=O)NC)c2cc1C1CCCCC1)S(C)(=O)=O | 1000 to 10000 | 1000 to 10000 | 
CNC(=O)c1c(-c2ccc(F)cc2)nn2cc(NS(C)(=O)=O)c(-c3cccc(C(=O)NC(C)(C)c4ccccc4)c3)cc12 | 2 to 250 | 1000 to 10000 | 
CNC(=O)c1c2cc(-c3cc(C(=O)NC(C)(C)c4ccccc4)ccc3Cl)ccc2nn1-c1ccc(F)cc1 | 2 to 250 | 2 to 250 | 
CNC(=O)c1c(-c2ccc(F)cc2)oc2ncc(-c3cc(C(=O)NC4(c5ncccn5)CC4)ccc3C)cc12 | 2 to 250 | 2 to 250 | 
CNC(=O)c1c(-c2ccc(F)cc2)nn2ccc(-c3cc(C(=O)NC4(C5CCCCC5)CC4)c(OC)cc3C)c(F)c12 | 2 to 250 | 2 to 250 | 
CNC(=O)c1c(-c2ccc(F)cc2)nn2ccc(-c3cc(C(=O)NC4(c5ccccc5)CC4)ccc3C)cc12 [drawing 173] |  |  | IC50 ([2]; Table 2): 4.75 nM; EC50 (HCV replicon cells; Table 2): 2.37 nM
CNC(=O)c1c(-c2ccc(F)cc2)nn2ccc(OC)cc12 | > 10000 | > 10000 | 
CNC(=O)c1c(-c2ccc(F)cc2)nn2ccc(NS(=O)(=O)c3ccc(OC(F)(F)F)cc3)cc12 | > 10000 | > 10000 | 
CNC(=O)c1c(-c2ccc(F)cc2)nn2cc(N(CCO)S(C)(=O)=O)c(-c3cccc(C(=O)NC4(c5ccccn5)CC4)c3)cc12 [drawing 182] |  |  | IC50 ([2]; Table 2): 60 nM; EC50 (HCV replicon cells; Table 2): 1560 nM
CNC(=O)c1c(-c2ccc(F)cc2)oc2ncc(-c3cccc(C(=O)NC(C)(C)C)c3)cc12 | 2 to 250 | 2 to 250 | 
CNC(=O)c1c(-c2ccc(F)cc2)nn2ccc(-c3cc(C(=O)NC4(c5ccccn5)CC4)c(OC)cc3C)c(F)c12 [drawing 178] |  |  | IC50 ([2]; Table 2): 20 nM; EC50 (HCV replicon cells; Table 2): 8.39 nM
CNC(=O)c1c(-c2ccc(F)cc2)nn2ccc(-c3cc(C(=O)NC4(c5ncccn5)CC4)c(OC)cc3C)c(F)c12 | 2 to 250 | 2 to 250 | 
CNC(=O)c1c(-c2ccc(F)cc2)nn2ccc(-c3cc(C(=O)NC4(c5ccccc5)CC4)c(OC)cc3C)c(F)c12 [drawing 174] |  |  | IC50 ([2]; Table 2): 10 nM; EC50 (HCV replicon cells; Table 2): 3.92 nM
CNC(=O)c1c(-c2ccc(F)cc2)nc2ccc(C3CC3C(=O)NC3(c4ccccn4)CC3)cn12 (centres unmarked) [drawing 159] | > 10000 | > 10000 | 
COC(=O)c1c(-c2ccccc2)nn2ccc(-c3cccc(C(=O)NC(C)(C)c4ccccc4)c3)cc12 | > 10000 | > 10000 | 
CNC(=O)c1c(-c2ccc(F)cc2)nn2ccc(-c3cc(C(=O)NC4(c5cccc(F)c5)CC4)c(OC)cc3C)c(F)c12 | 2 to 250 | 2 to 250 | 
CNC(=O)c1c(-c2ccc(F)cc2)nc2cc(C)c(-c3cc(C(=O)NC(C)(C)c4ccccc4)ccc3C)cn12 | 2 to 250 | 2 to 250 | 
CNC(=O)c1c(-c2ccc(F)cc2)nc2ccc(-c3cccc(C(=O)NC(C)(C)c4ccccc4)c3)cn12 | 2 to 250 | 2 to 250 | 
CNC(=O)c1c(-c2ccc(F)cc2)oc2cnc(-c3cc(C(=O)NC4(c5ccccn5)CC4)ccc3C)cc12 | 2 to 250 | 2 to 250 | 
